Usually Ki stands for the equilibrium dissociation constant of an inhibitor or competing ligand from its target.

“Also recorded” adds a separate entry of the source.

Data set [1] deals with T1, α1b adrenoreceptor (Homo sapiens, UniProt P35368).
T1 construct: expressed in transfected cells
T1 sequence (P35368 1-520): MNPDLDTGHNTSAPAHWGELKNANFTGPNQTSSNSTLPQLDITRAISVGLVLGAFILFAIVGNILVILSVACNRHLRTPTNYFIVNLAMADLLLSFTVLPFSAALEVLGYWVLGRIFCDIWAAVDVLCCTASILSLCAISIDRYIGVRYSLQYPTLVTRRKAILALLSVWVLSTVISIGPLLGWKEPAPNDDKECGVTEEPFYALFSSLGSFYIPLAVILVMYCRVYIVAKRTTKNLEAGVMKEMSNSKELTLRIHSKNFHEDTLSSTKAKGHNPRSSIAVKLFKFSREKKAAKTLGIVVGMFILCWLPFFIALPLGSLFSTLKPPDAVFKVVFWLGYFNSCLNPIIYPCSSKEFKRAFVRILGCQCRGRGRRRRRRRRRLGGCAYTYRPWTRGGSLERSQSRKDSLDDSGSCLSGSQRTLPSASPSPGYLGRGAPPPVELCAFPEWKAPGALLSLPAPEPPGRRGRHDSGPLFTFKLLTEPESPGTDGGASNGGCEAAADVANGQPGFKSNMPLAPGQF
The data set is described as follows: Cellular calcium flux (FLIPR), α1b expressing CHO cells. The note with it: α1b expressing CHO cells. It is filed as cell-based. How it is done: (§1) The affinity and activity of phenylephrine metabolites were evaluated in human recombinant α1 and α2 adrenoreceptor binding and activity assays. […] Affinity of the metabolites was determined by receptor binding assays. Functional activity of the metabolites was assessed using an [^35S]-GTPγS binding exchange assay for the α2 receptor subtypes and a cell-based calcium flux response for the α1 receptor subtypes.
(§2) Intracellular calcium levels were measured using a fluorometric imaging plate reader (FLIPR). Cells expressing α1 adrenoreceptors were cultured overnight at 15,000 cells/well in 96 well black-wall clear bottom plates (Packard). Adherent cells were loaded for 1 hour at 37° C. using the FLIPR Calcium Plus Assay Kit (Molecular Probes, Eugene, Oreg.), which included 2.5 mM probenecid (Sigma). Compounds (at 10 mM in 100% DMSO) were diluted in diluting buffer (HBSS, 20 mM HEPES, 2.5 mM probenecid, 0.5% BSA, pH 7.4). A titration of norepinephrine was included in every experiment and norepinephrine (at 1 μM) was also used as a plate standard on each assay plate. Cells were maintained at 37° C. throughout all calcium measurements. Fluorescence data was collected at 1 second interval for 60 seconds, followed by collection at 2 second intervals for 30 seconds. Background fluorescence was quantitated in wells containing cells with no additions and was subtracted from all experimental samples. All conditions were done in quadruplicate. Non-linear regression analysis using GraphPad Prism was used to calculate EC50 values.
(§3) Each metabolite was evaluated in each assay in at least 2 independent experiments and a representative assay of each metabolite/assay combination is shown.
(A change in cytosolic calcium serves as a functional read-out for many receptors and channels.)

Data set [2] addresses T2, α2c adrenoreceptor (Homo sapiens, UniProt P18825).
T2 construct: expressed in transfected cells; host or cells: CHO (Chinese hamster ovary) cells, membranes
T2 sequence (P18825 1-462): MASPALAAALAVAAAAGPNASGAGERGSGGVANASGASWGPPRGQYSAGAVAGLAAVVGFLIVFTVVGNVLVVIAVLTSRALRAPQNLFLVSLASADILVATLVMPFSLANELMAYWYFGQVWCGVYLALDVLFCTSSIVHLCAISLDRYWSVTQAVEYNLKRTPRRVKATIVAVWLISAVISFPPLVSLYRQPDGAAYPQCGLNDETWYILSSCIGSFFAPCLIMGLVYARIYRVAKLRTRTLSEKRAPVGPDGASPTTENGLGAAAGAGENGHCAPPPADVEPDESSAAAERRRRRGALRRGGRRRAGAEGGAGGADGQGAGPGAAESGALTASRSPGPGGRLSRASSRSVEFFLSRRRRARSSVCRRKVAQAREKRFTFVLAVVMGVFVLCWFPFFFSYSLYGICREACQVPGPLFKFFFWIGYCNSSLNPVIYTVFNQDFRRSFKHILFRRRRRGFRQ
Briefly: [35S]-GTPγS binding exchange, α2c CHO cell membranes. The data set is classed as biochemical. The following applies: for stimulation of [35S]-GTPγS binding, α2c (in words): CHO cell membranes. Here is the method: as §1
(§4) Assay buffer was 75 mM Tris-HCl pH 7.4, 12.5 mM MgCl2, 2 mM EDTA and 1 μM GDP. Plates were counted on a Packard TopCount. The percent increase over basal binding of [^35S]-GTPγS, a measure of efficacy, was calculated as follows: 100×[[mean total sample cpm−basal cpm]÷by basal cpm]. Basal cpm was defined as the mean cpm in the absence of agonist compound minus the mean non-specific binding cpm.
as §3
(GTPγS is a poorly hydrolysed GTP analogue; its binding reports G protein activation.)

Data set [3] addresses T3, α2b adrenoreceptor (Homo sapiens, UniProt P18089).
T3 construct: expressed in transfected cells; host or cells: CHO (Chinese hamster ovary) cells, membranes
T3 sequence (P18089 1-450): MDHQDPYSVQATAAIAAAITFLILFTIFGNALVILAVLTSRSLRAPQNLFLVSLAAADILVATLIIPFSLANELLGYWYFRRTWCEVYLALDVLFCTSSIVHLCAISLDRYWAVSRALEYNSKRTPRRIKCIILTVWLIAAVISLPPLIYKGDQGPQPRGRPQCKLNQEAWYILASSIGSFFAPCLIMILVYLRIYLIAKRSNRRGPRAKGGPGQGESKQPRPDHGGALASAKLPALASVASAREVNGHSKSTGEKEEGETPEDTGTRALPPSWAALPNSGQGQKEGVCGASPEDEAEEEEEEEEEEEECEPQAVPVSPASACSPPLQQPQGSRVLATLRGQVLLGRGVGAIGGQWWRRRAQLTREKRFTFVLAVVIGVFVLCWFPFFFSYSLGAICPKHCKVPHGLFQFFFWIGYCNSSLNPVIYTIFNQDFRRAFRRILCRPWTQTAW
Briefly: [35S]-GTPγS binding exchange, α2b CHO cell membranes. It is filed as biochemical. The note with it: for stimulation of [35S]-GTPγS binding, α2b (in words): CHO cell membranes. How it is done:
as §1, §4, §3

For data set [4], the target named is T4, α1a adrenoreceptor (Homo sapiens, UniProt P35348).
T4 construct: expressed in transfected cells
T4 sequence (P35348 1-466): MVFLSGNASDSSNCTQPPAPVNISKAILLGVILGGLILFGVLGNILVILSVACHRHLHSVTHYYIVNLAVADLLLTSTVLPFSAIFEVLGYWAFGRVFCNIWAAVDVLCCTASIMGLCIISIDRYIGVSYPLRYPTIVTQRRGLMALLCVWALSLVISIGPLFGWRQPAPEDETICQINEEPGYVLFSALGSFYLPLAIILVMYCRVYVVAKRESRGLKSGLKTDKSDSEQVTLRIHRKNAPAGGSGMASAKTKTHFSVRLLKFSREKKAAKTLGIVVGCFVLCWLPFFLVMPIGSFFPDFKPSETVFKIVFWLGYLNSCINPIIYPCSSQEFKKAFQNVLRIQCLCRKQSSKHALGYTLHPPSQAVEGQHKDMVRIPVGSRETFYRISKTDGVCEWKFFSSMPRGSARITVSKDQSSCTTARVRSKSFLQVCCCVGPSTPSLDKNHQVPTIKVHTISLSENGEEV
The data set is described as follows: Cellular calcium flux (FLIPR), α1a expressing CHO cells. The data set is classed as cell-based. The following applies: α1a expressing CHO cells. How it is done:
as §1, §2, §3

Data set [5] concerns the target T3, α2b adrenoreceptor. The data set is described as follows: Competition binding, [3H]-UK14304, α2b CHO cell membranes. The following applies: for inhibition of [3H]-UK14304 binding, α2b (in words): CHO cell membranes. Here is the method: as §1
(§5) Competition Binding Assays
(§6) Competition binding assays for the α2 adrenoreceptors were performed using 20 μg membrane protein per well in binding buffer (75 mM Tris-HCl pH 7.4, 12.5 mM MgCl2, […] EDTA, 0.2% bovine serum albumin). […] Binding was terminated by rapid filtration through GF/C unifilter plates, presoaked with 0.3% polyethylenimine, with five washes with 0.5 ml cold 50 mM Tris-HCl ph 7.4, using a Packard Filtermate Harvester. After drying, bound radioactivity was determined by liquid scintillation counting (Packard TopCount) with Microscint 20, 50 μl/well. Binding data were analyzed using GraphPad Prism.
as §3

Data set [6] addresses T4, α1a adrenoreceptor. Briefly: Competition binding, [3H]-prazosin, α1a CHO cell membranes. The following applies: for inhibition of 3H-prazosin binding, α1a (in words): CHO cell membranes.
Data set [7] addresses T2, α2c adrenoreceptor. Briefly: Competition binding, [3H]-UK14304, α2c CHO cell membranes. The following applies: for inhibition of [3H]-UK14304 binding, α2c (in words): CHO cell membranes. Here is the method: as §1, §5, §6, §3
In data set [8] the target is T1, α1b adrenoreceptor. Briefly: Competition binding, [3H]-prazosin, α1b CHO cell membranes. The following applies: for inhibition of 3H-prazosin binding, α1b (in words): CHO cell membranes. Here is the method:
as §1, §5, §6, §3

For data set [9] the following is noted: oral, approximately 24 mg of PE, healthy volunteers; cited from earlier work.
The conditions of data set [10]: cited from earlier work.
The conditions of data set [11]: in vivo; cited from earlier work.
Where [12] appears, read: listed as phenylephrine sulfate.
[13] abbreviates: at 100 μM (highest concentration evaluated).

On to `CNC[C@H](O)c1cccc(O)c1` [PE, (R)-(−)-phenylephrine, reference compound], for which the “increase in intracellular calcium, α1b calcium assay (in words)” value in data set [1] is “increases intracellular calcium”. Further, the “stimulation of [35S]-GTPγS binding, α2c (in words)” value in data set [2] was “stimulates [^35S]-GTPγS binding”. For the same compound, the “stimulation of [35S]-GTPγS binding, α2b (in words)” value in data set [3] is “stimulates [^35S]-GTPγS binding”. Besides, the “increase in intracellular calcium, α1a calcium assay (in words)” value in [4] is “increases intracellular calcium”. Also, the “inhibition of [3H]-UK14304 binding, α2b (in words)” value in [5] was “inhibits [^3H]-UK14304 binding”. In data set [6], the “inhibition of 3H-prazosin binding, α1a (in words)” value is “inhibits binding”. For the same compound, in data set [7], the “inhibition of [3H]-UK14304 binding, α2c (in words)” value is “inhibits [^3H]-UK14304 binding”. Further, the “inhibition of 3H-prazosin binding, α1b (in words)” value in [8] was “inhibits binding”.
As for (R)-PE sulfate, the “increase in intracellular calcium, α1b calcium assay (in words)” value in [1] is recorded as “minimal activity; also recorded: A very low level of activity”; in [1] (setting [12]) it was “induces minimal intracellular calcium increases”. In addition, in data set [2], the “stimulation of [35S]-GTPγS binding, α2c (in words)” value was “No activity”. Moreover, the “activity in α2c [35S]-GTPγS assay (in words)” value in [2] (highest concentration, 100 μM) was “no activity”. The “stimulation of [35S]-GTPγS binding, α2b (in words)” value in data set [3] is listed as “No activity”. Besides, the “activity in α2b [35S]-GTPγS assay (in words)” value in [3] (highest concentration, 100 μM) is listed as “no activity”. In addition, the “increase in intracellular calcium, α1a calcium assay (in words)” value in [4] was “no and A very low level of activity”; in data set [4] (setting [12]), “induces minimal intracellular calcium increases”. In addition, the “inhibition of [3H]-UK14304 binding, α2b (in words)” value in [5] was “no appreciable binding”. The Ki in data set [5] ([3H]-UK14304, read-out: Ki, a2b Binding (class symbol)) is above 100 µM; in data set [7] ([3H]-UK14304, read-out: Ki, a2c Binding (class symbol)) it was above 100 µM; in data set [8] ([3H]-prazosin, read-out: Ki, a1b Binding (class symbol)), above 100 µM. The “binding / affinity, α2b receptor (in words)” value in data set [5] (setting [13]) is listed as “very minimal binding; also recorded: no affinity”. Moreover, in data set [9], the “metabolite excreted in the urine” value was 47 % of dose. Moreover, the “inhibition of 3H-prazosin binding, α1a (in words)” value in [6] is reported as “No appreciable binding”. For the same compound, in [6] (concentrations up to 100 μM), the “binding / affinity, α1a receptor (in words)” value was “no affinity”. Also, the “inhibition of [3H]-UK14304 binding, α2c (in words)” value in data set [7] is listed as “but not; also recorded: no appreciable binding”. Moreover, the “binding / affinity, α2c receptor (in words)” value in data set [7] (setting [13]) is listed as “very minimal binding; also recorded: no affinity”. Moreover, the “inhibition of 3H-prazosin binding, α1b (in words)” value in [8] is “No appreciable binding”. For the same compound, in [8] (concentrations up to 100 μM), the “binding / affinity, α1b receptor (in words)” value is on record as “no affinity”.
Turning to `CCOC(=O)N1CCC(=C2c3ccc(Cl)cc3CCc3cccnc32)CC1` [loratadine], the “time to begin to elicit antihistaminic effect” value in [10] (exemplary conventional formulation) was 1 to 3 h.
In the case of `Clc1ccc2c(c1)CCc1cccnc1C2=C1CCNCC1` [desloratadine], in data set [11], the “half-life (t1/2) / elimination half-life” value was 15 to 19 h.
On to `C[C@@H]1CN([C@H]2CC[C@](C#N)(c3ccc(F)cc3)CC2)CC[C@]1(C(=O)O)c1ccccc1` [Levocabastine], for which, in [10] (in vivo), the duration of action is 16 to 24 h.
`CN1CCC(=C2c3ccccc3CCc3cccnc32)CC1` [Azatadine]: in data set [11], the “half-life (t1/2) / elimination half-life” value was 9 to 12 h.

(Values after patent US20090280160A1, “PHENYLEPHRINE PHARMACEUTICAL FORMULATIONS AND COMPOSITIONS FOR TRANSMUCOSAL ABSORPTION” (Schering-Plough Healthcare Products, Inc., priority 2007, published 2009).)
